The series is described as follows: in vitro. Particulars: rat, gh3-tre-luc cells.

Counter-ions that a name gives are not always drawn.

In article PMC6792352, “Limited Chemical Structural Diversity Found to Modulate Thyroid Hormone Receptor in the Tox21 Chemical Library” (Environmental Health Perspectives, 2019) one finds CC50 data, which are given here for 52 compounds.

Usually CC50 stands for the concentration giving 50% cytotoxicity. A low value points to harm at low concentration. Where the note is “AC50 (uM) modified / 1000”, `O=[N+]([O-])c1ccc(/C=N\O)o1` [Nifuroxime] returned a CC50 at 24 h above 50 µM.

For the compound `CC(C)(C)C(=O)OCC(=O)[C@H]1CC[C@H]2[C@@H]3CCC4=CC(=O)CC[C@]4(C)[C@H]3CC[C@]12C` [Desoxycorticosterone pivalate], the CC50 at 24 h (AC50 (uM) modified / 1000) was above 50 µM. The compound `CCCC(C)=O` [2-Pentanone] returned a CC50 at 24 h (AC50 (uM) modified / 1000) above 90 µM.

`CCCCCCCCCC[N+](C)(C)CCCCCCCCCC` [Didecyldimethylammonium chloride]: the CC50 at 24 h (AC50 (uM) modified / 1000) was 10.7 µM. Same read-out and setting: to `C[C@@H](O)[C@@H](C)O` [2,3-Butanediol] belongs above 100 µM; to `CCCSP(=O)(OCC)SCCC` [Ethoprop], above 90 µM.

For the setting “AC50 (uM) modified / 1000”, `CCCCCc1ccc(N)cc1` [4-Pentylaniline] came in with a CC50 at 24 h above 90 µM.

Consider `CCOc1nc2cccc(C(=O)OC(C)OC(=O)OC3CCCCC3)c2n1Cc1ccc(-c2ccccc2-c2nnn[nH]2)cc1` (stereo not drawn) [Candesartan cilexetil], for which the CC50 at 24 h (AC50 (uM) modified / 1000) was 31.1 µM. With `C[C@H](O)CCO` [1,3-Butanediol], the CC50 at 24 h (AC50 (uM) modified / 1000) was above 90 µM. As to `CN/C(=C\[N+](=O)[O-])NCCSCc1ccc(CN(C)C)o1` [Ranitidine], under “AC50 (uM) modified / 1000”, the CC50 at 24 h was above 90 µM. Still for that read-out and setting: to `NC(=O)C(Cl)(Cl)Cl` [2,2,2-Trichloroacetamide] belongs above 90 µM; to `Cc1ccc(N/N=c2\c(=O)cc/c(=N/Nc3ccc(S(=O)(=O)O)cc3)c2=O)c(C)c1` [C.I. Acid Orange 24, monosodium salt], 59.4 µM. Still for that read-out and setting: the same measure for `CN(C)[C@@H]1C(=O)C(C(=O)NCNCCCC[C@H](N)C(=O)O)=C(O)[C@@]2(O)C(=O)C3=C(O)c4c(O)cccc4[C@@](C)(O)[C@H]3C[C@@H]12` [Lymecycline]: above 20 µM; for `O=C(/C=C/c1ccccc1)NCCO` [Idrocilamide]: above 50 µM. Still for that read-out and setting: the same measure for `C[Si](Cl)(c1ccccc1)c1ccccc1` [Chloro(methyl)diphenylsilane]: above 90 µM; for `CCC(=O)[C@@]1(C)[C@H](C)C[C@H]2[C@@H]3CCC4=CC(=O)C=C[C@]4(C)[C@H]3[C@@H](O)C[C@@]21C` [Rimexolone]: above 20 µM. In turn, `C=CC(=O)NCOCCCC` [N-(Butoxymethyl)acrylamide] had a CC50 at 24 h (AC50 (uM) modified / 1000) above 100 µM.

`CCCC[C@@H](CC)COC(=O)c1ccccc1C(=O)OC[C@@H](CC)CCCC` [Di(2-ethylhexyl) phthalate]: the CC50 at 24 h (AC50 (uM) modified / 1000) is above 90 µM.

In turn, `COC(=O)C1(O)c2ccccc2-c2ccccc21` [Flurenol-methyl] showed a CC50 at 24 h (AC50 (uM) modified / 1000, Tox21_110001=Tox21_301428, viability, 1 nM T3 present, 24 h) above 90 µM. `O=C(CBr)c1ccccc1` [2-Bromoacetophenone] gave a CC50 at 24 h (AC50 (uM) modified / 1000, Tox21_110001=Tox21_202941, viability, 1 nM T3 present, 24 h) above 90 µM. The compound `CC(=O)OCC(=O)[C@H]1CC[C@H]2[C@@H]3CC[C@H]4C[C@H](O)CC[C@]4(C)[C@H]3C(=O)C[C@]12C` [Alfadolone acetate] had a CC50 at 24 h (AC50 (uM) modified / 1000) above 20 µM. Turning to `CCCCOCCOC(C)=O` [2-Butoxyethyl acetate], the CC50 at 24 h (AC50 (uM) modified / 1000) is above 90 µM. The same measure, in the same setting: to `CC1=C2[C@@H]([C@H](C)CC[C@H]2/C=C(\C)C(=O)O)[C@H](O)C1` [Hydroxyvalerenic acid] belongs above 90 µM; to `O=C1C[C@@H]2OCC=C3CN4CC[C@]56c7ccccc7N1[C@H]5[C@H]2[C@H]3C[C@H]46` [Strychnine], above 50 µM. On the same count and under the same terms, the same measure for `COC(=O)Nc1nc2ccc([S+]([O-])c3ccccc3)cc2[nH]1` (stereo not drawn) [Oxfendazole]: above 50 µM. Same read-out and setting: the same measure for `CC(=O)OC[C@H]1O[C@@H](O[C@H]2[C@H](O)[C@@H](OC(=O)c3ccccc3C(=O)O)[C@H](O)O[C@@H]2COC(C)=O)[C@H](O)[C@@H](OC(=O)c2ccccc2C(=O)O)[C@@H]1O` [Cellulose acetate phthalate]: above 50 µM; for `Cc1cc(C(=O)O)ccc1[N+](=O)[O-]` [3-Methyl-4-nitrobenzoic acid]: above 90 µM; for `NC(=O)CCCCC(N)=O` [Adipamide]: above 90 µM. In turn, `CCCCCCCCCCCC[N+](C)(C)CCCCCCCCCCCC` [Didodecyldimethylammonium bromide] displayed a CC50 at 24 h (AC50 (uM) modified / 1000) of 12.2 µM. With `O=P1(NCCCl)OCCCN1CCCl` (stereo not drawn) [Ifosfamide], the CC50 at 24 h runs as follows: (AC50 (uM) modified / 1000, Tox21_110001=Tox21_110539, viability, 1 nM T3 present, 24 h) above 20 µM; (AC50 (uM) modified / 1000, Tox21_110001=Tox21_201815, viability, 1 nM T3 present, 24 h) above 90 µM. `CCCC(=O)Nc1c(I)cc(I)c(CC(CC)C(=O)O)c1I` (stereo not drawn) [Sodium tyropanoate]: the CC50 at 24 h (AC50 (uM) modified / 1000) came out at 26.5 µM.

In the case of `CCc1cc(C2=C(C(=O)O)N(c3ccccc3C(F)(F)F)S(=O)(=O)c3ccccc32)cc2c1OCO2` [Fandosentan potassium salt], under “AC50 (uM) modified / 1000”, the CC50 at 24 h worked out at 8.29 µM.

On to `C[C@H]1CCC[C@H](O)CCCCCc2cc(O)cc(O)c2C(=O)O1` [Zearalanol], for which the CC50 at 24 h runs as follows: (AC50 (uM) modified / 1000, Tox21_110001=Tox21_110973, viability, 1 nM T3 present, 24 h) above 50 µM; (AC50 (uM) modified / 1000, Tox21_110001=Tox21_201203, viability, 1 nM T3 present, 24 h) 53.6 µM. `CCCCCCCC/C=C/CCCCCCCC(=O)OCCO` [Polyoxyethylene monoleate] yielded a CC50 at 24 h (AC50 (uM) modified / 1000) above 100 µM. With `C=C(C)C(=O)OCCOc1ccccc1` [Ethylene glycol phenyl ether methacrylate], for the setting “AC50 (uM) modified / 1000”, the cytotoxic concentration (CC50) at 24 h was above 90 µM. Same read-out and setting: to `O=c1ccc2ccccc2o1` [Coumarin] belongs above 90 µM; to `O=C(O)c1cccc(C(=O)O)n1` [2,6-Pyridinedicarboxylic acid], above 90 µM. `CCN(CC)CCOC(=O)C(C)(c1ccccc1)c1ccccc1` [Aprofene] showed a CC50 at 24 h (AC50 (uM) modified / 1000, Tox21_110001=Tox21_111979, viability, 1 nM T3 present, 24 h) of 15.4 µM. With `CN(C)CCCCl` [Dimethylaminopropyl chloride hydrochloride], for the setting “AC50 (uM) modified / 1000”, the CC50 at 24 h is above 100 µM.

Turning to `Sc1ncnc2nc[nH]c12` [6-Mercaptopurine monohydrate], the half-maximal cytotoxic concentration (CC50) at 24 h (AC50 (uM) modified / 1000) was above 90 µM. The same measure, in the same setting: to `COC(=O)c1c(Cl)c(Cl)c(C(=O)OC)c(Cl)c1Cl` [Chlorthal-dimethyl] belongs above 90 µM. In turn, `C[C@@H]1O[C@@H](O[C@@H]2C=C3CC[C@@H]4[C@H](CC[C@]5(C)[C@@H](c6ccc(=O)oc6)CC[C@]45O)[C@@]3(C)CC2)[C@H](O)[C@H](O)[C@H]1O` [Proscillaridin] had a CC50 at 24 h (AC50 (uM) modified / 1000, Tox21_110001=Tox21_110442, viability, 1 nM T3 present, 24 h) above 20 µM. `CC1=C(/C=C/C(C)=C/C=C/C(C)=C/C=C/C=C(C)/C=C/C=C(C)/C=C/C2=C(C)C[C@@H](O)CC2(C)C)C(C)(C)C[C@H](O)C1` [Zeaxanthin]: where the note is “AC50 (uM) modified / 1000”, the CC50 at 24 h stood at 28.9 µM.

In turn, `CCOC(=O)CC(C)=O` [Ethyl acetoacetate] had a CC50 at 24 h (AC50 (uM) modified / 1000) above 90 µM. Same read-out and setting: the same measure for `CN1CCN(C(c2ccccc2)c2ccccc2)CC1` [Cyclizine hydrochloride]: above 20 µM. Still for that read-out and setting: to `CCOC(=O)COc1ccc(C)cc1` [(4-Methylphenoxy) acetic acid ethyl ester] belongs above 90 µM. For the compound `Cc1ncc([C@@H](CCCCCCc2ccc3c(n2)NCCC3)CC(=O)O)cn1` [PharmaGSID_47333], the CC50 at 24 h (AC50 (uM) modified / 1000) was above 90 µM. On the same count and under the same terms, the same measure for `CCCN(CCC)C(=O)C(CCC(=O)O)NC(=O)c1ccccc1` (stereo not drawn) [Proglumide]: above 50 µM; for `O=S(=O)(O)CCCN1CCOCC1` [4-Morpholinepropanesulfonic acid]: above 90 µM; for `CN1C2=CC(=O)/C(=N\NC(N)=O)C=C2CC1S(=O)(=O)O` (stereo not drawn) [Carbazochrome sodium sulfonate]: above 50 µM. For the compound `O=S1OC[C@@H]2[C@H](CO1)[C@]1(Cl)C(Cl)=C(Cl)[C@@]2(Cl)C1(Cl)Cl` (stereo partly drawn) [Endosulfan I], under “AC50 (uM) modified / 1000, Tox21_110001=Tox21_301581, viability, 1 nM T3 present, 24 h”, it took 69.4 µM to reach half-maximal cytotoxicity (CC50 at 24 h). In the case of `C[C@]12CCC(=O)C=C1CC[C@@H]1[C@@H]2[C@@H](O)C[C@@]2(C)[C@H]1CC[C@]2(O)C(=O)CO` [Hydrocortisone], for the setting “AC50 (uM) modified / 1000”, the cytotoxic concentration (CC50) at 24 h was above 90 µM.
